# Laboratory results taken from ChEMBL document CHEMBL3217675, “Diaryl ureaLDV peptidomimetics as 41integrin antagonists: synthesis, adhesion inhibition and toxicity evaluation on CCRF-CEM cell line” (Medchemcomm, 2012).
# Activity calls are given as the source filed them. No cut-off for these calls is given here.
# Key:
# Integrin alpha-4/beta-1 [1] = target: T1, Integrin alpha-4/beta-1 (Homo sapiens, UniProt P05556+P13612); assay: Antagonist activity at integrin alpha4beta1 receptor in human CCRF-CEM cells assessed as inhibition of cell adhesion to fibronectin after 1 hr by calcein AM staining-based fluorescence assay
# Integrin alpha-4/beta-1 [2] = target: T1, Integrin alpha-4/beta-1; assay: Antagonist activity at integrin alpha4beta1 receptor in human CCRF-CEM cells assessed as detachment of adherent cell from fibronectin at 1 to 500 uM after 24 to 48 hrs by MTT assay; assay type: cell-based
# CCRF-CEM [3] = assay: Cytotoxicity against human CCRF-CEM cells assessed as cell viability at 1 to 500 uM after 24 hrs by propidium iodide staining-based flow cytometric analysis
# CCRF-CEM [4] = assay: Cytotoxicity against human CCRF-CEM cells assessed as cell viability up to 200 uM after 24 hrs by propidium iodide staining-based flow cytometric analysis
# T1 sequence (P05556 whole entry): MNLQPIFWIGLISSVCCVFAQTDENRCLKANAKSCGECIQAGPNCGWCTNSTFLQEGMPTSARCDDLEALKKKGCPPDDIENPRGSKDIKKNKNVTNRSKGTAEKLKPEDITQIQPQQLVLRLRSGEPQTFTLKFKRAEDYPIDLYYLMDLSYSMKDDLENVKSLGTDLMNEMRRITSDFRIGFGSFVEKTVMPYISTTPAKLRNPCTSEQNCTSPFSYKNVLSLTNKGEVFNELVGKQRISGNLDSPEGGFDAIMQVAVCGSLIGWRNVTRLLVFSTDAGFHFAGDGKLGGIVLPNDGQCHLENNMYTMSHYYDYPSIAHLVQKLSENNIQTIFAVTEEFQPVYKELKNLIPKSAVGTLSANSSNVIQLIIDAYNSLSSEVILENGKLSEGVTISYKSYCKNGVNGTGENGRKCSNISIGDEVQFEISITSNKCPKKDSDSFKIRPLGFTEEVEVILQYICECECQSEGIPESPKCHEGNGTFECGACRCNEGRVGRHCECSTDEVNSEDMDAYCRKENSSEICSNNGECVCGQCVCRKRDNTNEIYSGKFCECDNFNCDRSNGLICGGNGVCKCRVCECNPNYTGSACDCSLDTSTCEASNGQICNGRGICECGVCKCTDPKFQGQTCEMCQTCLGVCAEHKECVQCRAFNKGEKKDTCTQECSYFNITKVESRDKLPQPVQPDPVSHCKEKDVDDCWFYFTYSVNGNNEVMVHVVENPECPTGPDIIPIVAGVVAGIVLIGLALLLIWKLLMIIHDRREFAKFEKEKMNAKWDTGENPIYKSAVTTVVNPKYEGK
# T1 sequence (P13612 whole entry): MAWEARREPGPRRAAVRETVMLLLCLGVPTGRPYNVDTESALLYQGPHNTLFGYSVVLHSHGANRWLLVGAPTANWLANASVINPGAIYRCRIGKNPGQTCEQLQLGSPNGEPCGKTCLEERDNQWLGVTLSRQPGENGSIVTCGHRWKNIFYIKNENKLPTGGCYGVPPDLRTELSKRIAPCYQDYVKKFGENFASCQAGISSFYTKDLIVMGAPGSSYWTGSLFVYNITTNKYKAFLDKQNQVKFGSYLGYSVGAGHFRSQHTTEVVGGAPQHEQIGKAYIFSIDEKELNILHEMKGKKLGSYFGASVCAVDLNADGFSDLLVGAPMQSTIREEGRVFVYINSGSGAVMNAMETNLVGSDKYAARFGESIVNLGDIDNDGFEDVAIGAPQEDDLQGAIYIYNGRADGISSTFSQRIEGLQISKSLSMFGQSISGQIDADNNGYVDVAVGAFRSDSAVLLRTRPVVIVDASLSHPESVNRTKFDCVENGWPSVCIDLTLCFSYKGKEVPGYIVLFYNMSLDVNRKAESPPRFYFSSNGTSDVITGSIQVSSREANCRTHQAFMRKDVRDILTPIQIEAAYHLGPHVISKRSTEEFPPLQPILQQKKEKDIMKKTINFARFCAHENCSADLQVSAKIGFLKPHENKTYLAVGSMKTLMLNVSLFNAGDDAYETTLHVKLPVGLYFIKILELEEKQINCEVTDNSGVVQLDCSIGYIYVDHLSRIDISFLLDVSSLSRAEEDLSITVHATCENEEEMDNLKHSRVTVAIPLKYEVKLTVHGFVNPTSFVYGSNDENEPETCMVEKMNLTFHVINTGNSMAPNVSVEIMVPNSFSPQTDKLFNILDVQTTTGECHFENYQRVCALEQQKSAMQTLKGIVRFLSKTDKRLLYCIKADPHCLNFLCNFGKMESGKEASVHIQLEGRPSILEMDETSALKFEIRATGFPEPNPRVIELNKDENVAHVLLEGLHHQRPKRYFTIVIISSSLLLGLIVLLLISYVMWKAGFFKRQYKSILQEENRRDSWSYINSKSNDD
Structure (SMILES),IC50 (Integrin alpha-4/beta-1 [1]) [µM],other results
Cc1cccc(C)c1NC(=O)Nc1ccc(CC(=O)Nc2ccc(O)c(CCC(=O)O)c2)cc1,138,
N=C(N)NCCC[C@H](NC(=O)CN)C(=O)NCC(=O)N[C@@H](CC(=O)O)C(=O)N[C@@H](CO)C(=O)O,> 1000,
Cc1cccc(C)c1NC(=O)Nc1ccc(CC(=O)Nc2ccc(OCC(=O)O)c(CCC(=O)NCCc3ccccc3)c2)cc1,106,
Cc1cccc(C)c1NC(=O)Nc1ccc(CC(=O)O)cc1,> 1000,
Cc1cccc(C)c1NC(=O)Nc1ccc(CC(=O)Nc2ccc(OCC(=O)O)c(CCC(=O)OCc3ccc(Cl)cc3)c2)cc1,38.9,
Cc1cccc(C)c1NC(=O)Nc1ccc(CC(=O)Nc2ccc(OCC(=O)O)c(CCC(=O)OCCc3ccccc3)c2)cc1,24.5,
Cc1cccc(C)c1NC(=O)Nc1ccc(CC(=O)Nc2ccc(OCC(=O)OC(C)(C)C)c(CCC(=O)OCc3ccccc3)c2)cc1,102,
Cc1cccc(C)c1NC(=O)Nc1ccc(CC(=O)Nc2ccc(OCC(=O)O)c(CCC(=O)NCc3ccccc3)c2)cc1,97.7,
Cc1cccc(C)c1NC(=O)Nc1ccc(CC(=O)Nc2ccc(CCC(=O)OCc3ccccc3)c(OCC(=O)O)c2)cc1,81.3,
Cc1cccc(C)c1NC(=O)Nc1ccc(CC(=O)Nc2ccc(OCC(=O)O)c(CCC(=O)OCc3ccccc3)c2)cc1,24.3,Activity (Integrin alpha-4/beta-1 [2]): Active; Activity (CCRF-CEM [4]): Non-toxic; Activity (CCRF-CEM [3]): Non-toxic

# Continued, in another order:
IC50 (Integrin alpha-4/beta-1 [1]) [µM],Structure (SMILES),other results
> 500,O=C(O)CCc1ccc(NC(=O)Cc2ccc(NC(=O)Nc3ccccc3C(F)(F)F)cc2)cc1O,
190,Cc1cccc(C)c1NC(=O)Nc1ccc(CC(=O)Nc2ccc(CCC(=O)O)c(OCC(=O)OC(C)(C)C)c2)cc1,
64.6,O=C(O)COc1cc(NC(=O)Cc2ccc(NC(=O)Nc3ccccc3C(F)(F)F)cc2)ccc1CCC(=O)OCc1ccccc1,Activity (Integrin alpha-4/beta-1 [2]): Active; Activity (CCRF-CEM [3]): Non-toxic
33.1,O=C(O)COc1ccc(NC(=O)Cc2ccc(NC(=O)Nc3ccccc3C(F)(F)F)cc2)cc1CCC(=O)OCc1ccccc1,Activity (CCRF-CEM [4]): Non-toxic
151,CC(C)(C)OC(=O)COc1ccc(NC(=O)Cc2ccc(NC(=O)Nc3ccccc3C(F)(F)F)cc2)cc1CCC(=O)O,
209,O=C(O)CCc1cc(NC(=O)Cc2ccc(NC(=O)Nc3ccccc3C(F)(F)F)cc2)ccc1O,
81.3,Cc1cccc(C)c1NC(=O)Nc1ccc(CC(=O)Nc2ccc(OCC(=O)O)c(CCC(=O)O)c2)cc1,
79.4,CC(C)(C)OC(=O)COc1cc(NC(=O)Cc2ccc(NC(=O)Nc3ccccc3C(F)(F)F)cc2)ccc1CCC(=O)O,
703,COC(=O)[C@@H](NC(=O)[C@H](CC(=O)O)NC(=O)[C@H](CC(C)C)NC(=O)Cc1ccc(NC(=O)Nc2ccccc2C(F)(F)F)cc1)C(C)C,
> 1000,O=C(O)Cc1ccc(NC(=O)Nc2ccccc2C(F)(F)F)cc1,
146,Cc1cccc(C)c1NC(=O)Nc1ccc(CC(=O)Nc2ccc(CCC(=O)O)c(O)c2)cc1,
